The text below walks through data of patent US5569591A, “Analytical or monitoring apparatus and method” (priority 1990, dated 1996).

Test [1] has as its target T1, H+-ATPase in the plasma membrane of Saccharomyces cerevisiae (Saccharomyces cerevisiae, UniProt P05030). In kind it is cell-based. Details: endogenous in cells; host or cells: intact S. cerevisiae cells in suspension.
Experimental: The spectrometer 10 comprises two electrochemical cells 11, 12. Cell 11 is a test cell containing a sample of the biological system whose nonlinear dielectric properties are being studied. In this example the biological system comprises a system comprising a suspension of S. cerevisiae. The cell concentration was approximately 50 mg dry wt. ml^-1 in a medium of 20 mM KH2 PO4, 30 mM KCl, 1 mM MgCl2 pH 6.5. Tests were carried out within four hours of preparing the suspension. Cell 12 is a reference cell comprising the supernatant of the test suspension, the conductivity of which was adjusted with distilled water to compensate for the volume fraction of cells present in the sample, to be identical to that of the sample at the frequency of interest. The cells 11, 12 were connected to a sinusoidal oscillator 13, via a Data Translation Analog to Digital converter, to an 80386 microcomputer 14.
The sample cell suspension was pipetted into the electrode cell 11 (FIG. 1), the test waveform applied to the (outer) current electrodes, and the data logged from the (inner) voltage electrodes at a sampling frequency (which was typically at 25 times the frequency of the fundamental) and for a time specified by the operator. Time was specified in terms of a number of blocks, each block consisting of 512 samples. At the end of the time specified, the data were Fourier transformed as follows. […]
The target of test [2] is vanadate-resistant ATPase of a mutant strain of yeast (Saccharomyces cerevisiae, UniProt P05030). The following applies: mutant strain with vanadate-resistant ATPase.
Sequence of vanadate-resistant ATPase of a mutant strain of yeast (P05030 whole entry, change not shown): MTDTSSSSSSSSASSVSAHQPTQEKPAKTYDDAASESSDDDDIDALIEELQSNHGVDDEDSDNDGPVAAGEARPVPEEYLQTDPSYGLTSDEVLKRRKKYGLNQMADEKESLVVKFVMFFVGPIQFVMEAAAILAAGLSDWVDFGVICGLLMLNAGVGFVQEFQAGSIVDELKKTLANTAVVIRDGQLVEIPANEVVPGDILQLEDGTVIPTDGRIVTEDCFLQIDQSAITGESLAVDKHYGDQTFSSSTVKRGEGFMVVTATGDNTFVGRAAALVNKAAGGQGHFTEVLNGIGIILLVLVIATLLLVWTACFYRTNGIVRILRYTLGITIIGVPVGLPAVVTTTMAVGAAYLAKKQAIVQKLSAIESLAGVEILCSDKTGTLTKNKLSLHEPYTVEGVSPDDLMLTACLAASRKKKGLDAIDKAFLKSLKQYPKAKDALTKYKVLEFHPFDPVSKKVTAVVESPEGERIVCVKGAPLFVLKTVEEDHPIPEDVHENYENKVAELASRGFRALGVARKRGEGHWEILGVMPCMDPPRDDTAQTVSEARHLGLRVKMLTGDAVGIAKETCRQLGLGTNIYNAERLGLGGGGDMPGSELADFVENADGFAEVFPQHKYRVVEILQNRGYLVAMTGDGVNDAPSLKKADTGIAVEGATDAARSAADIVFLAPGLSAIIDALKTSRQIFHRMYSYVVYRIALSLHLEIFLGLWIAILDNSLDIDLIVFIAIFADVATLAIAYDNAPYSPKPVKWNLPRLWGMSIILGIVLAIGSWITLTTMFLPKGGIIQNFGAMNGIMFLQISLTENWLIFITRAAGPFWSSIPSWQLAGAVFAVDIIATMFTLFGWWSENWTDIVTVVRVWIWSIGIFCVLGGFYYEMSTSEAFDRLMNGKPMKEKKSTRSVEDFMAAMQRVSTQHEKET
Test [3] concerns the target T1, H+-ATPase in the plasma membrane of Saccharomyces cerevisiae. The following applies: cells metabolising added D-glucose.
Experimental: As described above, a 3rd harmonic was reproducibly observed with resting cell suspensions of S. cerevisiae. This could be ascribed to the presence of the H^+ -ATPase in this organism, and should be expected to reflect a situation in which the enzyme was at static head. An experiment to determine how this behaviour might be modified when the enzyme was driven away from static head and was able (or expected) to do work was carried out. Resting cells were taken, their (usual) non-linear dielectric spectrum recorded, and a metabolisable carbon source (D-glucose) added.

T1 sequence (P05030 whole entry): as the sequence (P05030 whole entry, change not shown) above

As for `C(=NC(c1ccccc1)c1ccccc1)=NC(c1ccccc1)c1ccccc1` [dibenzhydryl carbodiimide], the generation of harmonics result in test [1] (0.2 pmol/mg dry wt of cells) is on record as “completely abolished”.

For sodium metavanadate, the “generation of harmonics in the presence of vanadate” value in test [2] is “vanadate resistant”. For the same compound, the “even (2nd and 4th) harmonics in the presence of vanadate” value in test [3] is given as “vanadate-sensitive”. Besides, in test [1] (1 mM sodium metavanadate, FIG. 12), the “generation of the 3rd harmonic” value is listed as “essentially completely abolished”.
